Data: ChEMBL document CHEMBL1146000, “Synthesis, in vitro evaluation, and intraocular pressure effects of water-soluble prodrugs of endocannabinoid noladin ether” (J Med Chem, 2003)

Experiments:
[1] = Half-life in 4% cornea homogenate at 37 C (n = 3); type: ADME, tissue-based
[2] = Half-life in 10% liver homogenate at 37 C (n = 3); type: ADME, tissue-based
[3] = Distribution coefficients at 25 C in a 1-octanol-TRIS buffer; type: physicochemical
[4] = Aqueous solubility of the phosphate in TRIS buffers at pH 7.4 at 37 C was determined; type: physicochemical; details: TRIS buffer
alkaline phosphatase = assay: Half-life in alkaline phosphatase solution at 37 C (n = 2); type: ADME
[5] = Chemical stability in TRIS buffers at pH 7.4 at 37 C was determined; type: physicochemical; details: TRIS buffer
[6] = Chemical stability in phosphate buffers at pH 7.4 at 37 C was determined; type: physicochemical; details: phosphate buffer

Row | half-life [1] [min] | half-life [2] [min] | logD [3] | solubility [4] [µg/mL] | half-life (alkaline phosphatase) [min] | half-life [5] [h] | half-life [6] [days] | SMILES
1 | 17.2 | 6.4 | 0.65 | > 5000 | 1.6 |  |  | CCCCC/C=C\C/C=C\C/C=C\C/C=C\CCCCOC(COP(=O)(O)O)COP(=O)(O)O
2 | 18.1 | 7.1 | 1.98 | > 5000 | 4.6 | 216 | 17.9 | CCCCC/C=C\C/C=C\C/C=C\C/C=C\CCCCOC(CO)COP(=O)(O)O (stereo not drawn)

Row | SMILES | half-life [1] [min] | half-life [2] [min] | logD [3] | solubility [4] [µg/mL] | half-life (alkaline phosphatase) [min] | half-life [5] [h] | half-life [6] [days]
3 | CCCCC/C=C\C/C=C\C/C=C\C/C=C\CCCCOC(CO)CO |  |  |  | < 0.1 |  |  | 
